# Experimental data as given in US20110293593A1, “SIVA 2 STABILIZATION” (YEDA RESEARCH AND DEVELOPMENT CO., LTD., priority 2008, published 2011).
# Peptide text beside a SMILES is read from it. * marks the point of attachment. Cbz = O=C(OCc1ccccc1)*
# B1: CD70: CD27 ligand; mCD70 produced by large-scale transfection of HEK-293T cells (protein, UniProt O55237 1-195, looked up)
# CD70 antigen: MPEEGRPCPWVRWSGTAFQRQWPWLLLVVFITVFCCWFHCSGLLSKQQQRLLEHPEPHTAELQLNLTVPRKDPTLRWGAGPALGRSFTHGPELEEGHLRIHQDGLYRLHIQVTLANCSSPGSTLQHRATLAVGICSPAAHGISLLRGRFGQDCTVALQRLTYLVHGDVLCTNLTLPLLPSRNADETFFGVQWICP
# B2: HIS-SIVA2 (1-58) (other, not shown: small tags and cut ends)
# chain: MPKRSCPFADVAPLQLKVRVSQRELSRGVCAERYSQEVFDPSGVASIACSSCVRAVDG
# notes: also called SIVA N-terminus
# B3: CD154: CD40 ligand; hCD40L produced by large-scale transfection of HEK-293T cells (protein, UniProt P29965 113-261, looked up)
# CD40 ligand, soluble form: MQKGDQNPQIAAHVISEASSKTTSVLQWAEKGYYTMSNNLVTLENGKQLTVKRQGLYYIYAQVTFCSNREASSQAPFIASLCLKSPGRFERILLRAANTHSSAKPCGQQSIHLGGVFELQPGASVFVNVTDPSQVSHGTGFTSFGLLKL
# B4: HIS-SIVA2 (other, not shown: small tags and cut ends)
# chain: MPKRSCPFADVAPLQLKVRVSQRELSRGVCAERYSQEVFDPSGVASIACSSCVRAVDGKAVCGQCERALCGQCVRTCWGCGSVACTLCGLVDCSDMYEKVLCTSCAMFET
# notes: Expressed by transfection in HEK293T cells
# Tests used:
# [1] = tested on: SIVA2; test: SIVA2 level/stabilization in transfected HEK-293T and EcR-293 cells, western blotting; format: cell-based, human
# Method: (A) Expression of SIVA1 and SIVA2 in various cell lines. For each cell line, cellular protein (30 μg) was resolved by 13.5% SDS-PAGE and probed with anti-SIVA antibody. The two lanes at the right show SIVA1 and SIVA2 overexpressed in HEK-293T cells (for each protein, 2 μg cDNA/well in 6-well plates). (B) Several SIVA isoforms are expressed in PBMCs. […] (C) Ligand activation increases the amount of SIVA2 in resting PBMCs. Cells (2×10^6) were treated with the indicated ligands for 8 h and the cell lysates were analyzed by western blotting. […] The cells were stimulated with PHA (1 μg/ml) for 48 h, washed twice with phosphate-buffered saline, and incubated for an additional period of 18 h without PHA. Ligands and genotoxic agents (camptothecin (CPT) 10 μM and cisplatin (CIS) 50 μM) were then applied for 18 h. MG132 was applied for the last 4 h of treatment. Except where otherwise indicated, MG132 was applied in this study at a concentration of […] denotes a non-specific band serving as loading control. […] PBMCs were activated as in FIG. 1d. Ligands were applied to the indicated cell types for 18 h. Semi-quantitative RT-PCR for SIVA message was performed as described in Methods. GAPDH was used as a basis for normalization. […] SIVA2 or SIVA1 plasmids (0.5 μg) were transfected, and 18 h later ligands were applied for 8 h. Total-cell lysates were analyzed by western blotting using anti-SIVA antibody. TNF-induced SIVA2 stabilization was assessed in EcR-293-CD27 cells. (G) Inducibly expressed SIVA2 is stabilized by CD70. EcR-293-CD27-SIVA2 cells (see Methods) were treated with ponasterone and CD70 as indicated. Total-cell lysates were analyzed by western blotting using LDH as the loading control (bottom panel). […] HEK-293T cells were transfected with FLAG-SIVA2 and analyzed 24 h after transfection. MG132 was applied for the last 4 h of treatment. TCL, total cell lysate. (I) Differential effects of genotoxic agents on the expression of SIVA1 and SIVA2. Top: HepG2 cells were treated with CPT for 18 h. When indicated, they were transfected with pSUPER SIVA 30 h prior to CPT application. Cells lysates were analyzed by western blotting using anti-SIVA antibody. Middle: HepG2 cells were exposed to UVC (20 J/m^2) and levels of SIVA proteins were determined after 18 h of treatment. […] Bottom: HEK-293T cells were transfected with 0.5 μg of FLAG-SIVA2. CPT and CD40L were applied, 8 h after transfection, for a further 18 h.
# HEK-293T cells cotransfected with NIK and SIVA2 were metabolically labeled with azido-GlcNAc, in-vitro biotinylated, and immunoprecipitated. The biotin-labeled GlcNAc moieties in SIVA2 were detected with streptavidin horseradish peroxidase (HRP). (B) SIVA binds to wheatgerm-agglutinin. The plasmids for SIVA2, alone or together with NIK or TRAF2, were transiently expressed in HEK-293T cells. Lactacystin was applied for the last 6 h of the 24-h treatment period. Lysates were analyzed for expression (right panel) and WGA binding (left panel) of SIVA2. N-acetyl-D-glucosamine (0.5 M) was added as a competitor for WGA binding. […] FLAG-SIVA2 was cotransfected with myc-NIK into HEK-293T cells and immunoprecipitated with anti-FLAG-M2 beads. The immunoprecipitated beads were boiled with 1% SDS and the eluted proteins were treated with […] hexosaminidase as described (Whelan, 2006). The samples were collected after treatment for 4, 8, and 20 h, diluted with WGA binding buffer, and lectin binding was assayed as described in Methods. Immunoprecipitation of the protein with anti-FLAG-M2 beads after treatment for 8 h as described above, followed by western analysis, confirmed that despite having lost the ability to bind to WGA the protein remained intact. ‘Sup’, SIVA protein remaining unbound after the reaction. […] The plasmids were transiently expressed in HEK-293T cells. DON (50 μM) was applied for the last 16 h and MG132 for the last 6 h of the 28-h treatment period. […] The experiment was performed as in (D). […]
# [2] = tested on: SIVA2; test: SIVA2 protein level in PBMCs, western blotting with anti-SIVA antibody; format: cell-based, human; conditions: for SIVA2 levels in activated PBMCs: PHA-activated PBMCs, CPT 10 μM, CIS 50 μM for 18 h, MG132 last 4 h; for SIVA2 expression: resting PBMCs, ligands for 8 h
# Method: For each cell line, cellular protein (30 μg) was resolved by 13.5% SDS-PAGE and probed with anti-SIVA antibody. The two lanes at the right show SIVA1 and SIVA2 overexpressed in HEK-293T cells (for each protein, 2 μg cDNA/well in 6-well plates). […] Cells (2×10^6) were treated with the indicated ligands for 8 h and the cell lysates were analyzed by western blotting. […] The cells were stimulated with PHA (1 μg/ml) for 48 h, washed twice with phosphate-buffered saline, and incubated for an additional period of 18 h without PHA. Ligands and genotoxic agents (camptothecin (CPT) 10 μM and cisplatin (CIS) 50 μM) were then applied for 18 h. MG132 was applied for the last 4 h of treatment. Except where otherwise indicated, MG132 was applied in this study at a concentration of […] denotes a non-specific band serving as loading control. […] PBMCs were activated as in FIG. 1d. Ligands were applied to the indicated cell types for 18 h. Semi-quantitative RT-PCR for SIVA message was performed as described in Methods. GAPDH was used as a basis for normalization. […] SIVA2 or SIVA1 plasmids (0.5 μg) were transfected, and 18 h later ligands were applied for 8 h. Total-cell lysates were analyzed by western blotting using anti-SIVA antibody. […] EcR-293-CD27-SIVA2 cells (see Methods) were treated with ponasterone and CD70 as indicated. Total-cell lysates were analyzed by western blotting using LDH as the loading control (bottom panel). […] HEK-293T cells were transfected with FLAG-SIVA2 and analyzed 24 h after transfection. MG132 was applied for the last 4 h of treatment. TCL, total cell lysate. […] Top: HepG2 cells were treated with CPT for 18 h. When indicated, they were transfected with pSUPER SIVA 30 h prior to CPT application. Cells lysates were analyzed by western blotting using anti-SIVA antibody. Middle: HepG2 cells were exposed to UVC (20 J/m^2) and levels of SIVA proteins were determined after 18 h of treatment. […] Bottom: HEK-293T cells were transfected with 0.5 μg of FLAG-SIVA2. CPT and CD40L were applied, 8 h after transfection, for a further 18 h.
# Cells. Peripheral-blood mononuclear cells (PBMCs) were isolated from buffy-coat samples and cultured as described (Ramakrishnan et al., 2004). Ecdysone-inducible EcR-293-CD27 cell lines expressing SIVA2 (EcR-293-CD27-SIVA2) or SIVA1 (EcR-293-CD27-SIVA1) and EcR-293-CD40 were generated by transfection using the calcium phosphate method according to the instructions of the manufacturer (Invitrogen). All adherent cells—HEK-293T, EcR-293 (Invitrogen), HeLa, HeLa T-REx (Invitrogen), and HepG2—were cultured in Dulbecco's modified Eagle's medium. Both culture media were supplemented with 10% fetal calf serum, 100 U/ml pencillin, and 100 μg/ml streptomycin. The human lymphoblastoid lines Ramos (Human Burkitt's lymphoma cell line) and BJAB (B-lymphoblastoma cell line) were cultured in RPMI medium. Ecdysone-inducible EcR293-CD27 and EcR293-CD40 cell lines were generated by their stable transfection with cDNAs for human CD27 and CD40, respectively. EcR293-CD27 cell lines expressing SIVA2 (EcR293-CD27-SIVA2) or SIVA1 (EcR293-CD27-SIVA1) were generated by transfection using the calcium phosphate method, and myc NIK and myc NIK (K670A) were later introduced into these cells by retroviral transduction and selection with 1 μg/ml puromycin. Ramos cells constitutively expressing myc-NIK were generated by retroviral transduction, followed by selection with 1 μg/ml puromycin. […]
# [3] = tested on: SIVA1; test: SIVA1 protein level in PBMCs, western blotting with anti-SIVA antibody; format: cell-based, human; conditions: resting PBMCs, ligands for 8 h
# Method: For each cell line, cellular protein (30 μg) was resolved by 13.5% SDS-PAGE and probed with anti-SIVA antibody. The two lanes at the right show SIVA1 and SIVA2 overexpressed in HEK-293T cells (for each protein, 2 μg cDNA/well in 6-well plates). […] Cells (2×10^6) were treated with the indicated ligands for 8 h and the cell lysates were analyzed by western blotting. […] The cells were stimulated with PHA (1 μg/ml) for 48 h, washed twice with phosphate-buffered saline, and incubated for an additional period of 18 h without PHA. Ligands and genotoxic agents (camptothecin (CPT) 10 μM and cisplatin (CIS) 50 μM) were then applied for 18 h. MG132 was applied for the last 4 h of treatment. Except where otherwise indicated, MG132 was applied in this study at a concentration of […] denotes a non-specific band serving as loading control. […] Semi-quantitative RT-PCR for SIVA message was performed as described in Methods. […] Total-cell lysates were analyzed by western blotting using anti-SIVA antibody. […] Total-cell lysates were analyzed by western blotting using LDH as the loading control (bottom panel). […] HEK-293T cells were transfected with FLAG-SIVA2 and analyzed 24 h after transfection. […] Cells lysates were analyzed by western blotting using anti-SIVA antibody. Middle: HepG2 cells were exposed to UVC (20 J/m^2) and levels of SIVA proteins were determined after 18 h of treatment. […]
# [4] = target: T1, cIAP1 (human, UniProt Q13490 1-618); test: immunoprecipitation of endogenous cIAP1 from transfected HEK293T cells (FIG. 6D right panel)
# T1 construct: Also used for general sentences that say only 'cIAP1'; also called endogenous cIAP1
# Method: Left panel: Binding in vitro. […] Right and bottom panels depict binding in transfected HEK293T cells. […] After 28 h the endogenous cIAP1 was immunoprecipitated. MG132 was applied for the last 6 h of incubation. […] After 28 h the transfected proteins were immunoprecipitated and probed for co-precipitated endogenous cIAP1. MG132 was applied for the last 6 h of incubation. […] N/A, not analyzed. The asterisk denotes assessment in the yeast two-hybrid test. […] The indicated plasmids were co-transfected into HEK293T cells.
# [5] = HEK-293T, FLAG-SIVA2, MG132 last 4 h
# T1 sequence (Q13490 whole entry): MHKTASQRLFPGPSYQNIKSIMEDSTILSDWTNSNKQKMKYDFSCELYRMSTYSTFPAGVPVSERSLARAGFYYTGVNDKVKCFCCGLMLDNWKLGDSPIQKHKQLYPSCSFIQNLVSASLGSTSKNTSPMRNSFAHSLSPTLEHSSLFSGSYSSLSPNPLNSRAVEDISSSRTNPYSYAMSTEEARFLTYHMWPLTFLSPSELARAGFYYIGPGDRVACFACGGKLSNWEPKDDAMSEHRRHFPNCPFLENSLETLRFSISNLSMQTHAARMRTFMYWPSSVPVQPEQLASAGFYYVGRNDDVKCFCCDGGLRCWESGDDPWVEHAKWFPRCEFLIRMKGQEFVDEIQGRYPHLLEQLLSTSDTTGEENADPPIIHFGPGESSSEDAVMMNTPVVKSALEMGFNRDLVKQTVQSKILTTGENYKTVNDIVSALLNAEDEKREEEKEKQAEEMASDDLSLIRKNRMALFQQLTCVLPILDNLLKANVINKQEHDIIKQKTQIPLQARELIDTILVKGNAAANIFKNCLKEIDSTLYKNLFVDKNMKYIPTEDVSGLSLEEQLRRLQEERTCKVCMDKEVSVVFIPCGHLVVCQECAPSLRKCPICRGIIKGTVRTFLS
molecule,measurement,setting,value
"CC[C@@]1(O)C(=O)OCc2c1cc1n(c2=O)Cc2cc3ccccc3nc2-1 [CPT, camptothecin]",cytokine (CD40)-induced stabilization/enhancement of SIVA2 under genotoxic agent,"[1]; HEK-293T, FLAG-SIVA2, CPT and CD40L for 18 h",decreased
same,SIVA2 levels in activated PBMCs,[2],"but not genotoxic stress, increase SIVA2 levels"
"N.N.[Cl][Pt][Cl] [CIS, cisplatin]",SIVA2 levels in activated PBMCs,[2],"but not genotoxic stress, increase SIVA2 levels"
"[N-]=[N+]=CC(=O)CC[C@H](N)C(=O)O [DON, 6-diazo-5-oxo-L-norleucine]",MG132-induced SIVA2 stabilization,"[1]; HEK-293T, DON 50 μM last 16 h, MG132 last 6 h",does not affect MG132-induced stabilization
same,TRAF2-induced SIVA2 stabilization,"[1]; HEK-293T, DON 50 μM last 16 h of 28 h",interferes with TRAF2-induced SIVA2 stabilization
same,NIK-mediated stabilization of wild-type SIVA2,"[1]; HEK-293T, DON as in FIG. 3D",blocks the NIK-mediated stabilization of wild-type SIVA2
same,residual stabilization by NIK of the SIVA2 6SA mutant,"[1]; HEK-293T, DON as in FIG. 3D",has no effect on the residual stabilization by NIK of the SIVA2 6SA mutant
"CC(=O)N[C@H]1[C@@H](OCc2ccccc2)O[C@H](CO)[C@H](O)[C@@H]1O [BADGP, benzyl-α-GalNAc]",NIK-induced SIVA2 stabilization,"[1]; HEK-293T, NIK + SIVA2, 0.7, 1.4, or 2.0 mM BADGP last 16 h of 28 h",blocks NIK-induced SIVA2 stabilization
CC(C)C[C@@H](C=O)NC(=O)[C@H](CC(C)C)NC(=O)[C@H](CC(C)C)NC(=O)OCc1ccccc1 [MG132] (Cbz-Leu-Leu-Leu-aldehyde),accumulation of polyubiquitinated SIVA2,[1]; [5],enhances accumulation of the polyubiquitinated protein
same,stabilization of transiently expressed SIVA2,[1]; [5],stabilizes transiently expressed SIVA2
same,stabilization of SIVA2 (1-58) (SIVA N-terminus),"[1]; HEK-293T, MG132 25 uM last 6 h of 24 h",stabilizes SIVA N-terminus
same,stabilization of SIVA2 serine mutants,"[1]; HEK-293T, MG132 added 18 h after transfection for 6 h",stabilize the SIVA2 serine mutants that cannot be stabilized by NIK
same,SIVA2 levels in activated PBMCs,[2],increase SIVA2 levels
B1,stabilization of inducibly expressed SIVA2,"[1]; EcR-293-CD27-SIVA2 cells, ponasterone",stabilized
same,SIVA2 expression,[2],extensive enhancement
same,SIVA1 expression,[3],did not affect
B2,binding result,[4],binds
B3,SIVA2 expression,[2],extensive enhancement
same,SIVA1 expression,[3],did not affect
B4,binding result,[4],binds
